Laboratory results: patent US7507708B2, “Antitumoral compounds” (Pharma Mar, S.A.U., priority 2003, dated 2009)

Key:
[1] = In vivo MTD in athymic mice; conditions: mouse; for MTD at 5 days: 5 daily doses; for MTD: intravenous, single bolus
Method: (§1) The Maximum Tolerated Dose is determined in CD-1 and athymic mice (both genders) for each drug after single bolus administration and after 5 dayly doses. The results are given in table IV, there is no significant difference between the compounds 5 methylhexanoic KF and (4S)-methylhexanoic KF.

[2] = test system: AML-12, normal mouse liver cells; assay: In vitro toxicity to normal cells, MTS assay; conditions: read-out: ALM Liver IC50, 24 h
Method: (§3) In order to assess the cytotoxicity of the drugs to normal cells, we used 96 well plates plated at a density of 5000 cells per well with normal cell lines maintained as per the directions of the ATCC: AML-12, normal mouse liver cells and NRK-52E, normal rat kidney cell. The cells in each plate were permitted to settle overnight before adding the test drug. To each well (100 μl medium) 10 μl of drug in media was added at varying concentrations (1×10^−10-0.01 mg/ml final concentration) and further incubated overnight at 37° C. with 5% CO2. All experiments were repeated at least 3 times and were assayed in duplicate. After 24 h the MTS assay (CellTiter 96 aqueous) was performed according to the manufacturer's (Promega) directions (for all cell types). Cell viability (mitochondrial activity) is determined via enzymatic conversion of the formazan substrate.

LN-caP = assay: In vitro cytotoxic activity, SRB assay; assay type: cell-based, human; conditions: 48 hours exposure
Text: (§2) Plates are washed with deionized water and dried.

LOVO-DOX = assay: In vitro cytotoxic activity, SRB assay; assay type: cell-based, human; conditions: 48 hours exposure
Text: as §2

HT-29 = assay: In vitro cytotoxic activity, SRB assay; assay type: cell-based, human; conditions: HT-29, 48 hours exposure; for CC50: read-out: LC50 (the source's name)
Text: as §2

HELA-APL = assay: In vitro cytotoxic activity, SRB assay; assay type: cell-based, human; conditions: 48 hours exposure; for CC50: read-out: LC50 (the source's name)
Text: as §2

IGROV = assay: In vitro cytotoxic activity, SRB assay; assay type: cell-based, human; conditions: 48 hours exposure
Text: as §2

LOVO = assay: In vitro cytotoxic activity, SRB assay; assay type: cell-based, human; conditions: 48 hours exposure
Text: as §2

DU-145 = assay: In vitro cytotoxic activity, SRB assay; assay type: cell-based, human; conditions: DU-145, 48 hours exposure
Text: as §2

IGROV-ET = assay: In vitro cytotoxic activity, SRB assay; assay type: cell-based, human; conditions: 48 hours exposure
Text: as §2

SK-BR-3 = assay: In vitro cytotoxic activity, SRB assay; assay type: cell-based, human; conditions: SK-BR-3, 48 hours exposure; for CC50: read-out: LC50 (the source's name)
Text: as §2

PANC-1 = assay: In vitro cytotoxic activity, SRB assay; assay type: cell-based, human; conditions: PANC-1, 48 hours exposure
Text: as §2

MEL-28 = assay: In vitro cytotoxic activity, SRB assay; assay type: cell-based, human; conditions: MEL-28, 48 hours exposure
Text: as §2

K-562 = assay: In vitro cytotoxic activity, SRB assay; assay type: cell-based, human; conditions: K-562, 48 hours exposure
Text: as §2

A-549 = assay: In vitro cytotoxic activity, SRB assay; assay type: cell-based, human; conditions: A-549, 48 hours exposure; for CC50: read-out: LC50 (the source's name)
Text: as §2

HELA = assay: In vitro cytotoxic activity, SRB assay; conditions: for CC50: read-out: LC50, 48 hours exposure
Method: The finality of these assays is to interrupt the growth of a “in vitro” tumor cell culture by means a continued exhibition of the cells to the sample to be testing.
Most of the cell lines are obtained from American Type Culture Collection (ATCC) derived from different human cancer types.
Cells are maintained in RPMI 1640 10% FBS, supplemented with 0.1 g/l penicillin and 0.1 g/l streptomycin sulfate and then incubated at 37° C., 5% CO2 and 98% humidity. For the experiments, cells were harvested from subconfluent cultures using trypsin and resuspended in fresh medium before plating.
Cells are seeded in 96 well microtiter plates, at 5×10^3 cells per well in aliquots of 195 μl medium, and they are allowed to attach to the plate surface by growing in drug free medium for 18 hours. Afterward, samples are added in aliquots of 5 μl in a ranging from 10 to 10^−8 μg/ml, dissolved in DMSO/EtOH/PBS (0.5:0.5:99). After 48 hours exposure, the antitumor effect are measured by the SRB methodology: cells are fixed by adding 50 μl of cold 50% (wt/vol) trichloroacetic acid (TCA) and incubating for 60 minutes at 4° C. Plates are washed with deionized water and dried. One hundred μl of SRB solution (0.4% wt/vol in 1% acetic acid) is added to each microtiter well and incubated for 10 minutes at room temperature. Unbound SRB is removed by washing with 1% acetic acid. Plates are air dried and bound stain is solubilized with Tris buffer. Optical densities are read on a automated spectrophotometric plate reader at a single wavelength of 490 nm.
The values for mean +/− SD of data from triplicate wells are calculated. Some parameters for cellular responses can be calculated: GI=growth inhibition, TGI=total growth inhibition (cytostatic effect) and LC=cell killing (cytotoxic effect).

In vivo MTD in CD-1 mice = conditions: mouse, unit inferred; for MTD at 5 days: 5 daily doses; for MTD: intravenous, single bolus
Method: as §1

[3] = test system: NRK-52E, normal rat kidney cell; assay: In vitro toxicity to normal cells, MTS assay; assay type: cell-based; conditions: 24 h
Method: as §3

female mice = conditions: cited from earlier work
[4] = female athymic mice, no unit printed in table (325 μg/kg/day), read-out: Female athymic mice MTD 5DD
[5] = female athymic mice, unit inferred, read-out: Female athymic mice MTD Bolus
[6] = male athymic mice, unit inferred, read-out: Male athymic mice MTD Bolus
[7] = male athymic mice, unit inferred, read-out: Male athymic mice MTD 5DD
[8] = female CD-1 mice, read-out: Female CD-1 mice MTD 5DD
[9] = female CD-1 mice, read-out: Female CD-1 mice MTD Bolus
[10] = male CD-1 mice, read-out: Male CD-1 mice MTD Bolus
[11] = male CD-1 mice, read-out: Male CD-1 mice MTD 5DD

C/C=C1\NC(=O)[C@H](Cc2ccccc2)NC(=O)[C@@H](C(C)C)NC(=O)[C@@H]([C@@H](C)CC)NC(=O)[C@H](NC(=O)[C@H](NC(=O)[C@H](CCCN)NC(=O)[C@H]2CCCN2C(=O)[C@H](NC(=O)[C@@H](NC(=O)[C@@H](NC(=O)[C@H](NC(=O)CC[C@@H](C)CC)C(C)C)[C@@H](C)O)C(C)C)C(C)C)[C@@H](C)CC)[C@@H](C)OC(=O)[C@H](C(C)C)NC1=O [(4S)-methylhexanoic KF, 4(S)-MeHex-D-Val-L-Thr-L-VaI-D-Val-D-Pro-L-Orn-D-allo-Ile-cyclo(D-allo-Thr-D-allo-Ile-D-Val-L-Phe-Z-Dhb-L-Val)]
MTD at 5 days [1, 4]: 0.325 mg/kg
MTD [1, 5]: 0.325 mg/kg
MTD [1, 6]: 0.35 mg/kg
MTD at 5 days [1, 7]: 0.35 mg/kg
IC50 [2]: 5.4 µM
GI50 (LN-caP): 1.12 µM
LC50 (50% lethal concentration) (LN-caP): 5.93 µM
GI50 (LOVO-DOX): 0.157 µM
LC50 (LOVO-DOX): 0.677 µM
GI50 (HT-29): 0.301 µM
CC50 (HT-29): 2.71 µM
GI50 (HELA-APL): 1.04 µM
CC50 (HELA-APL): 4.39 µM
GI50 (IGROV): 0.292 µM
LC50 (IGROV): 2.62 µM
GI50 (LOVO): 0.163 µM
LC50 (50% lethal concentration) (LOVO): 0.58 µM
GI50 (DU-145): 0.237 µM
LC50 (DU-145): 2.49 µM
GI50 (IGROV-ET): 0.225 µM
LC50 (IGROV-ET): 2.82 µM
GI50 (SK-BR-3): 0.181 µM
CC50 (SK-BR-3): 0.606 µM
GI50 (PANC-1): 6.77 µM
LC50 (PANC-1): 6.77 µM
GI50 (MEL-28): 1.43 µM
LC50 (MEL-28): 4.72 µM
GI50 (K-562): 2.52 µM
LC50 (50% lethal concentration) (K-562): 6.77 µM
GI50 (A-549): 0.267 µM
CC50 (A-549): 3.09 µM
GI50 (HELA; 48 hours exposure): 1.18 µM
CC50 (HELA): 4.97 µM
MTD at 5 days (In vivo MTD in CD-1 mice; [8]): 0.175 to 0.35 mg/kg
MTD (In vivo MTD in CD-1 mice; [9]): 0.2 mg/kg
MTD (In vivo MTD in CD-1 mice; [10]): 0.3 mg/kg
MTD at 5 days (In vivo MTD in CD-1 mice; [11]): 0.175 to 0.35 mg/kg
IC50 [3]: 2.7 µM

C/C=C1\NC(=O)[C@H](Cc2ccccc2)NC(=O)[C@@H](C(C)C)NC(=O)[C@@H]([C@@H](C)CC)NC(=O)[C@H](NC(=O)[C@H](NC(=O)[C@H](CCCN)NC(=O)[C@H]2CCCN2C(=O)[C@H](NC(=O)[C@@H](NC(=O)[C@@H](NC(=O)[C@H](NC(=O)CC[C@H](C)CC)C(C)C)[C@@H](C)O)C(C)C)C(C)C)[C@@H](C)CC)[C@@H](C)OC(=O)[C@H](C(C)C)NC1=O [(4R)-methylhexanoic KF]
GI50 (LN-caP): 1.5 µM
LC50 (50% lethal concentration) (LN-caP): 4.04 µM
TGI (LN-caP): 2.46E−06 Molar
GI50 (LOVO-DOX): 0.288 µM
LC50 (LOVO-DOX): 2.19 µM
TGI (LOVO-DOX): 7.71E−07 Molar
GI50 (HT-29): 0.738 µM
TGI (HT-29): 1.54E−06 Molar
CC50 (HT-29): 3.22 µM
GI50 (HELA-APL): 1.56 µM
TGI (HELA-APL): 3.47E−06 Molar
CC50 (HELA-APL): 6.77 µM
GI50 (IGROV): 0.941 µM
LC50 (IGROV): 3.5 µM
TGI (IGROV): 1.81E−06 Molar
GI50 (LOVO): 0.248 µM
LC50 (50% lethal concentration) (LOVO): 2.28 µM
TGI (LOVO): 7.78E−07 Molar
GI50 (DU-145): 1.2 µM
LC50 (DU-145): 3.82 µM
TGI (DU-145): 2.14E−06 Molar
GI50 (IGROV-ET): 0.805 µM
LC50 (IGROV-ET): 3.26 µM
TGI (IGROV-ET): 1.62E−06 Molar
GI50 (SK-BR-3): 1.25 µM
TGI (SK-BR-3): 2.20E−06 Molar
CC50 (SK-BR-3): 3.86 µM
GI50 (PANC-1): 4.7 µM
LC50 (PANC-1): 4.24 µM
TGI (PANC-1): 4.24E−06 Molar
GI50 (MEL-28): 1.14 µM
LC50 (MEL-28): 3.8 µM
TGI (MEL-28): 2.09E−06 Molar
GI50 (K-562): 3.73 µM
LC50 (50% lethal concentration) (K-562): 6.77 µM
TGI (K-562): 6.77E−06 Molar
GI50 (A-549): 1.2 µM
TGI (A-549): 2.26E−06 Molar
CC50 (A-549): 4.24 µM
GI50 (HELA; 48 hours exposure): 1.05 µM
TGI (HELA; 48 hours exposure): 1.93E−06 Molar
CC50 (HELA): 3.55 µM

C/C=C1\NC(=O)[C@H](Cc2ccccc2)NC(=O)[C@@H](C(C)C)NC(=O)[C@@H]([C@@H](C)CC)NC(=O)[C@H](NC(=O)[C@H](NC(=O)[C@H](CCCN)NC(=O)[C@H]2CCCN2C(=O)[C@H](NC(=O)[C@@H](NC(=O)[C@@H](NC(=O)[C@H](NC(=O)CCCC(C)C)C(C)C)[C@@H](C)O)C(C)C)C(C)C)[C@@H](C)CC)[C@@H](C)OC(=O)[C@H](C(C)C)NC1=O [5-methylhexanoic KF, reference compound]
MTD at 5 days [1, 4]: 0.325 mg/kg
MTD [1, 5]: 0.325 mg/kg
MTD [1, 6]: 0.35 mg/kg
MTD at 5 days [1, 7]: 0.35 mg/kg
IC50 [2]: 3.4 µM
GI50 (LN-caP): 0.961 µM
LC50 (50% lethal concentration) (LN-caP): 5.57 µM
GI50 (LOVO-DOX): 0.162 µM
LC50 (LOVO-DOX): 0.62 µM
GI50 (HT-29): 0.141 µM
CC50 (HT-29): 0.562 µM
GI50 (HELA-APL): 1.06 µM
CC50 (HELA-APL): 4.43 µM
GI50 (IGROV): 0.42 µM
LC50 (IGROV): 3.8 µM
GI50 (LOVO): 0.12 µM
LC50 (50% lethal concentration) (LOVO): 0.428 µM
GI50 (DU-145): 0.751 µM
LC50 (DU-145): 3.6 µM
GI50 (IGROV-ET): 0.447 µM
LC50 (IGROV-ET): 3.09 µM
GI50 (SK-BR-3): 0.398 µM
CC50 (SK-BR-3): 6.77 µM
GI50 (PANC-1): 1.38 µM
LC50 (PANC-1): 6.07 µM
GI50 (MEL-28): 0.69 µM
LC50 (MEL-28): 3.55 µM
GI50 (K-562): 1.54 µM
LC50 (50% lethal concentration) (K-562): 5.66 µM
GI50 (A-549): 0.866 µM
CC50 (A-549): 3.78 µM
GI50 (HELA; 48 hours exposure): 0.839 µM
CC50 (HELA): 4.26 µM
tolerability of repeated administration (female mice; 280 μg/kg, once daily times five schedule): without any apparent evidence of acute toxicity
maximum tolerated dose (MTD) (female mice; female mice, single bolus iv injection): 0.28 mg/kg
MTD at 5 days (In vivo MTD in CD-1 mice; [8]): 0.175 to 0.35 mg/kg
MTD (In vivo MTD in CD-1 mice; [9]): 0.2 mg/kg
MTD (In vivo MTD in CD-1 mice; [10]): 0.3 mg/kg
MTD at 5 days (In vivo MTD in CD-1 mice; [11]): 0.175 to 0.35 mg/kg
IC50 [3]: 2.7 µM
